Experimental findings from PubChem BioAssay (NCI) are described below.

Some test systems named below: LOX IMVI melanoma; DU-145 prostate; NCI-H23 lung; PC-3 prostate; K-562 leukemia; UACC-62 melanoma; NCI-H226 lung; 786-0 renal; OVCAR-4 ovarian; NCI-H522 lung.
Assay in all cases: NCI anticancer screen, dose series, 48 h

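Method: 48-hour compound exposure of cells in 96-well plates, five concentrations, linear interpolation of endpoints. Definition used: TGI = concentration required for complete inhibition of growth.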

On to `N#Cc1c(=O)c2cccnc2n2c1[nH]c1ccccc12`, for which the TGI in the assay on LOX IMVI melanoma, with DU-145 prostate, in the assay with NCI-H23 lung, in the assay with PC-3 prostate, in the assay on K-562 leukemia and in the assay with UACC-62 melanoma was > 100 µM throughout. Further, the TGI in the assay with NCI-H226 lung, in the assay on 786-0 renal and in the assay on OVCAR-4 ovarian was > 100 µM in each case.
As for `C=CCc1c(O)c2ccccc2[nH]c1=O`, the TGI in the assay on LOX IMVI melanoma, in the assay with DU-145 prostate, in the assay with NCI-H522 lung, with NCI-H23 lung, with PC-3 prostate and with K-562 leukemia was > 100 µM each time. Further, the TGI in the assay with NCI-H226 lung, in the assay with 786-0 renal and with OVCAR-4 ovarian was > 100 µM each time.
Take `COc1cc(C2C(Cl)C(=O)N2c2ccc(Br)cc2)cc(I)c1O` (stereo unspecified): the TGI with LOX IMVI melanoma, in the assay on DU-145 prostate, in the assay with NCI-H522 lung, with NCI-H23 lung, in the assay with PC-3 prostate and in the assay on K-562 leukemia was > 100 µM in each case. In addition, the TGI in the assay with UACC-62 melanoma, in the assay on 786-0 renal and with OVCAR-4 ovarian was > 100 µM in each case.
`C/C(=N\N=C(N)N)c1c(C(=O)OCCCCCCOC(=O)c2nc3sccn3c2/C(C)=N/N=C(N)N)nc2sccn12`: the TGI in the assay with LOX IMVI melanoma was > 100 µM; with NCI-H522 lung, > 100 µM; in the assay with NCI-H23 lung, > 100 µM; with PC-3 prostate, > 100 µM; in the assay on K-562 leukemia it was 50.1 µM; in the assay with UACC-62 melanoma, > 100 µM. Further, the TGI in the assay on NCI-H226 lung, with 786-0 renal and with OVCAR-4 ovarian was > 100 µM in each case.
On to `CCCCCCCCCCCCC(=O)NCC(=O)NC(Cc1ccccc1)C(=O)Oc1ccc([N+](=O)[O-])cc1` (stereo unspecified), for which the TGI was > 100 µM in the assay with LOX IMVI melanoma; > 100 µM in the assay on DU-145 prostate; 81 µM with NCI-H522 lung; > 100 µM with NCI-H23 lung; > 100 µM with PC-3 prostate; > 100 µM in the assay with UACC-62 melanoma. Also, the TGI with NCI-H226 lung and in the assay on 786-0 renal was > 100 µM throughout.
As to `O=C1/C(=C/c2ccccc2S)N=C(c2ccccc2)N1c1ccc2c(c1)Sc1cc(N3C(=O)/C(=C/c4ccccc4S)N=C3c3ccccc3)ccc1N2`, the TGI is 48.1 µM in the assay on LOX IMVI melanoma; 40.4 µM in the assay on DU-145 prostate; 46.9 µM in the assay with PC-3 prostate; 51 µM with K-562 leukemia; 42.7 µM in the assay with UACC-62 melanoma; 46.4 µM in the assay on 786-0 renal. The molecule further returned a TGI in the assay with OVCAR-4 ovarian of 90.5 µM.
Regarding `CN(C)c1ccc(-c2nc(-c3cc4c(ccc5ccccc54)oc3=O)cs2)cc1`, the TGI in the assay with LOX IMVI melanoma, in the assay with DU-145 prostate, in the assay with NCI-H522 lung, with PC-3 prostate, in the assay with K-562 leukemia and in the assay on UACC-62 melanoma was > 100 µM each time. The TGI in the assay on NCI-H226 lung, in the assay on 786-0 renal and in the assay on OVCAR-4 ovarian was > 100 µM throughout.
Take `CCCCCCCCCCCCCCCCOCC(CC(F)(F)P(=O)(O)O)OC(C)=O` (stereo unspecified): the TGI with DU-145 prostate, with NCI-H522 lung, with NCI-H23 lung, in the assay with PC-3 prostate, in the assay on K-562 leukemia and in the assay with UACC-62 melanoma was > 50 µM each time. In addition, the TGI in the assay with NCI-H226 lung and in the assay with 786-0 renal was > 50 µM throughout.
As for `Cn1c(N)c(/C=N/NC(=O)CC#N)c(=O)n(C)c1=O`, the TGI in the assay on LOX IMVI melanoma, with DU-145 prostate, in the assay with NCI-H522 lung, in the assay on PC-3 prostate, in the assay with UACC-62 melanoma and with NCI-H226 lung was > 100 µM throughout. In addition, the TGI in the assay on 786-0 renal and in the assay with OVCAR-4 ovarian was > 100 µM each time.
`N#Cc1c(N)c(-c2ccc(Cl)cc2)c(F)c2ccccc12`: the TGI in the assay on LOX IMVI melanoma, with NCI-H522 lung, with NCI-H23 lung, with PC-3 prostate, in the assay with K-562 leukemia and in the assay with UACC-62 melanoma was > 100 µM throughout. Moreover, the TGI with NCI-H226 lung, with 786-0 renal and in the assay with OVCAR-4 ovarian was > 100 µM throughout.
Consider `C=C[C@]1(C)CC[C@]2(C)C(CC[C@@]3(C)C2C[C@H](O)[C@H](O)[C@@]3(C)O)C1` (stereo partly specified), for which the TGI in the assay with LOX IMVI melanoma, with DU-145 prostate, in the assay with NCI-H522 lung, with NCI-H23 lung, with PC-3 prostate and in the assay on K-562 leukemia was > 100 µM in each case. The TGI in the assay with UACC-62 melanoma, in the assay on NCI-H226 lung and in the assay with 786-0 renal was > 100 µM in each case.
For the molecule `O=C(C[C@@H]1NCCC[C@H]1O)Cn1cnc2cc(Br)c(Cl)cc2c1=O`, the TGI with LOX IMVI melanoma is 0.0268 µM; in the assay on DU-145 prostate it was 0.0919 µM; with NCI-H522 lung it was 0.169 µM; in the assay on NCI-H23 lung, 0.11 µM; with PC-3 prostate, 1.4 µM; in the assay with K-562 leukemia, 0.0727 µM. The TGI with NCI-H226 lung is 0.0473 µM; in the assay on 786-0 renal it was 0.135 µM; in the assay on OVCAR-4 ovarian it was 0.0809 µM.
As to `CC1(C)CC(=O)C(/C=N/c2nc(-c3ccc(Br)cc3)cs2)=C(O)C1`, the TGI was 52.4 µM with LOX IMVI melanoma; > 100 µM in the assay with DU-145 prostate; 83.9 µM in the assay on NCI-H23 lung; > 100 µM in the assay with PC-3 prostate; > 100 µM in the assay with NCI-H226 lung; > 100 µM with 786-0 renal. Further, the TGI in the assay on OVCAR-4 ovarian was > 100 µM.
Regarding `CCOC(=O)/C=C1\Nc2ccccc2C12CCc1c([nH]c3ccccc13)C2C(=O)OCC` (stereo unspecified), the TGI in the assay on LOX IMVI melanoma, with DU-145 prostate, with NCI-H522 lung, in the assay on NCI-H23 lung, with PC-3 prostate and in the assay with K-562 leukemia was > 100 µM in each case. The TGI with UACC-62 melanoma, in the assay on 786-0 renal and with OVCAR-4 ovarian was > 100 µM in each case.
Turning to `C#CC(C)(C)Oc1cc(OC)c2c(=O)c3ccccc3n(C)c2c1`, the TGI in the assay with DU-145 prostate is 55.8 µM; in the assay on PC-3 prostate it was 40.8 µM; in the assay on K-562 leukemia, 55.5 µM; with UACC-62 melanoma, 32 µM; in the assay on NCI-H226 lung, 36.4 µM; in the assay on 786-0 renal, > 100 µM. For the same molecule, in the assay with OVCAR-4 ovarian, the TGI turned out to be 41.8 µM.
